In US20110065739A1, “NOVEL ISOXAZOLE DRIVATIVE” (priority 2008, published 2011):
Structures can show the parent of a compound that is named as a salt.

target: T1, human GPR120 (Homo sapiens, UniProt Q5NUL3); test: Measurement of intracellular calcium concentration (FLIPR), GPR120 agonist action; assay type: cell-based; settings: 10 μmol/l test compound, human GPR120 expression CHO cells, Fluo-4 AM
T1 construct: expressed in transfected cells
T1 sequence (Q5NUL3 1-361): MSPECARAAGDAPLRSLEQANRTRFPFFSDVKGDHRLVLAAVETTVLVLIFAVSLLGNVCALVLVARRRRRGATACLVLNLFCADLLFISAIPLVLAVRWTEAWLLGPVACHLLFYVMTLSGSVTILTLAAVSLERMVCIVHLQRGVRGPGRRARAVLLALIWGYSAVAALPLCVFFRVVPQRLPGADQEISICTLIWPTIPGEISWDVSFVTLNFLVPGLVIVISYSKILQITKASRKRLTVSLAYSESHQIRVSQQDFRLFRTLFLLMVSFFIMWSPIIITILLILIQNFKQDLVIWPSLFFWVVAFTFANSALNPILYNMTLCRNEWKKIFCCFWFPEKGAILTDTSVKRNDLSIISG
Experimental: Using Lipofectamine 2000 (Invitrogen), cDNA of GPR120 receptor was transfected into CHO/NFAT-BLA cells, and drug-resistant cells were isolated to obtain GPR120 stable expression strains. The GPR120-expressed CHO cells were cultured in DMEM/F12 medium containing 10% fetal bovine serum, 100 units/ml penicillin, 0.1 mg/ml streptomycin sulfate, 250 μg/ml Zeocin, 500 μg/mL Geneticin and 15 mM HEPES. On the day before the measurement day, 4 μM Fluo-4 AM (fluorescence calcium indicator reagent) was incubated to be introduced into the human GPR120 expression CHO cells plated at 20000 cells per well of a 96-well black plate (ViewPlate; Packard) in the presence of 2.5 mM probenecid in a CO2 incubator for 1 hour. To the cells was added the test compound diluted with HBSS solution containing 20 mM HEPES and 2.5 mM probenecid. Variations in the intracellular calcium concentration were measured by Fluorescence Imaging Plate Reader (FLIPR; Molecular Devices) to examine the agonist action, and EC50 values were calculated.

Molecule	Agonistic activity at 10 μmol/l (%)
CC(C)Oc1ccccc1C(C)COc1ccc(-c2cc(O)no2)c(F)c1 (stereo not shown) [Example 39]	90%
CC(C)Oc1cccc(C(C)(C)COc2ccc(-c3cc(O)no3)cn2)c1.O=C(O)C(F)(F)F [Example 44]	99%
CC(C)Cc1cccc(CC(C)Oc2ccc(-c3cc(O)no3)cc2)c1 (stereo not shown) [Example 53, 5-{4-[2-(3-isobutylphenyl)-1-methylethoxy]phenyl}isoxazol-3-01]	100%
CC(C)Oc1cc(CC(C)Oc2ccc(-c3cc(O)no3)cc2)ccn1.Cl (stereo not shown) [Example 62]	99%
N-[4-(3-hydroxyisoxazol-5-yl)benzyl]-3-isopropoxy-N-methylaniline [Example 65]	76%
N-[4-(3-hydroxyisoxazol-5-yl)benzyl]-3-isopropoxy-N-methylbenzenesulfonamide [Example 51]	77%

same assay, conditions: 10 μmol/l test compound, human GPR120 expression CHO cells, Fluo-4 AM, read-out: Agonistic activity at 10 μmol/l (%)

Molecule	activation at 10 µM
CCC(Cc1cccc(OC(C)C)c1)Oc1ccc(-c2cc(O)no2)cc1 (stereo not shown) [Example 34, 5-(4-(2-(3-isopropoxyphenyl)-1-ethylethoxy)phenyl)isoxazol-3-ol]	90%
CC(C)Oc1cccc(C(F)(F)COc2ccc(-c3cc(O)no3)cc2)c1 [Example 36, 5-(4-(2,2-difluoro-2-(3-isopropoxyphenyl)ethoxy)phenyl)isoxazol-3-ol]	100%
CCOc1cccc(CC(C)Oc2ccc(-c3cc(O)no3)c(F)c2)c1 (stereo not shown) [Example 37, 5-{2-fluoro-4-[2-(3-ethoxyphenyl)-1-methylethoxy]phenyl}isoxazol-3-ol]	97%
CC(C)Oc1cccc(C(C)(C)COc2ccc(-c3cc(O)no3)c(F)c2)c1 [Example 38, 5-{2-fluoro-4-[2-(3-isopropoxyphenyl)-2-methylpropoxy]phenyl}isoxazol-3-ol]	92%
CC(C)Oc1cccc(C(C)COc2ccc(-c3cc(O)no3)cn2)c1 (stereo not shown) [Example 40, 5-(6-(2-(3-isopropoxyphenyl)propoxy)pyridin-3-yl)isoxazol-3-ol]	95%
CC(C)Oc1cccc(C(C)N(C)Cc2ccc(-c3cc(O)no3)cc2)c1 (stereo not shown) [Example 41, 5-(4-{[[1-(3-isopropoxyphenyl)ethyl](methyl)amino]methyl}phenyl)isoxazol-3-ol]	87%
CC(C)Oc1cccc(C(=O)COc2ccc(-c3cc(O)no3)cc2)c1 [Example 42, 2-[4-(3-hydroxyisoxazole-5-yl)phenoxy]-1-(3-isopropoxyphenyl)ethanone]	98%
CCOc1cccc(CC(C)Oc2ccc(-c3cc(O)no3)cn2)c1 (stereo not shown) [Example 43, 2-[2-(3-ethoxyphenyl)-1-methylethoxy]-5-(3-hydroxyisoxazole-5-yl)pyridinium Trifluoroacetate]	94%
CC(Cc1cccc(N(C)C)c1)Oc1ccc(-c2cc(O)no2)cc1 (stereo not shown) [Example 45, 3-{2-[4-(3-hydroxyisoxazol-5-yl)phenoxy]propyl}-N,N-dimethylaniline Hydrochloride]	85%
CC(C)Oc1cccc(C(=O)C(C)Oc2ccc(-c3cc(O)no3)cc2)c1 (stereo not shown) [Example 46, 2-[4-(3-hydroxyisoxazol-5-yl)phenoxy]-1-(3-isopropoxyphenyl)propan-1-one]	91%
CC(C)Oc1cccc(C(C)OCc2ccc(-c3cc(O)no3)cc2)c1 (stereo not shown) [Example 47, 5-(4-{[1-(3-isopropoxyphenyl)ethoxy]methyl}phenyl)isoxazol-3-ol]	92%
CC(C)Oc1cccc(N(C)CCc2ccc(-c3cc(O)no3)cc2)c1 [Example 48, N-{2-[4-(3-hydroxyisoxazol-5-yl)phenyl]ethyl}-3-isopropoxy-N-methylaniline Trifluoroacetate]	92%
CC(C)Oc1cccc(CN(C)C(C)c2ccc(-c3cc(O)no3)cc2)c1 (stereo not shown) [Example 49, 1-[4-(3-hydroxyisoxazol-5-yl)phenyl]-N-(3-isopropoxybenzyl)-N-methylethanamine Trifluoroacetate]	84%
CC(C)Oc1cccc(C(C)SCc2ccc(-c3cc(O)no3)cc2)c1 (stereo not shown) [Example 50, 5-[4-({[1-(3-isopropoxyphenyl)ethyl]thio}methyl)phenyl]isoxazol-3-ol]	80%
CC(C)Oc1cccc(OC(C)Cc2ccc(-c3cc(O)no3)cc2)c1 (stereo not shown) [Example 52, 5-{4-[2-(3-isopropoxyphenoxy)propyl]phenyl}isoxazol-3-ol]	96%
CC(C)Oc1cccc(CC(C)Oc2ccc(-c3cc(O)no3)cc2F)c1 (stereo not shown) [Example 54, 5-{3-fluoro-4-[2-(3-isopropoxyphenyl)-1-methylethoxy]phenyl}isoxazol-3-ol]	100%
CC(C)Oc1cccc(SC(C)Cc2ccc(-c3cc(O)no3)cc2)c1 (stereo not shown) [Example 55, 5-(4-{2-[(3-isopropoxyphenyl)thio]propyl}phenyl)isoxazol-3-ol]	101%
CCOc1cccc(CC(C)Oc2ccc(-c3cc(O)no3)cc2F)c1 (stereo not shown) [Example 56, 5-{4-[2-(3-ethoxyphenyl)-1-methylethoxy]-3-fluorophenyl}isoxazol-3-ol]	96%
CC(C)Oc1cccc(C(F)(F)COc2ccc(-c3cc(O)no3)c(F)c2)c1 [Example 57, 5-{4-[2,2-difluoro-2-(3-isopropoxyphenyl)ethoxy]-2-fluorophenyl}isoxazol-3-ol]	98%
CC(C)Oc1cccc(N(C)C(C)Cc2ccc(-c3cc(O)no3)cc2)c1 (stereo not shown) [Example 58, 5-(4-{2-[(3-isopropoxyphenyl)(methyl)amino]propyl}phenyl)isoxazol-3-ol]	91%
CC(Cc1cccc(OC(C)C)c1)Nc1ccc(-c2cc(O)no2)cc1 (stereo not shown) [Example 59, 4-(3-hydroxyisoxazol-5-yl)-N-[2-(3-isopropoxyphenyl)-1-methylethyl]aniline Trifluoroacetate]	96%
CC(C)Oc1cccc(CCN(C)c2ccc(-c3cc(O)no3)cc2)c1 [Example 60, 4-(3-hydroxyisoxazol-5-yl)-N-[2-(3-isopropoxyphenyl)ethyl]-N-methylaniline Trifluoroacetate]	65%
COc1cc(-c2cc(O)no2)ccc1OC(C)Cc1cccc(OC(C)C)c1 (stereo not shown) [Example 61, 5-{4-[2-(3-isopropoxyphenyl)-1-methylethoxy]-3-methoxyphenyl}isoxazol-3-ol]	79%
CC(C)Oc1cc(C[C@H](C)Oc2ccc(-c3cc(O)no3)cc2)ccn1 [Example 63, 5-(4-(((1S)-1-methyl-2-(2-((1-methylethyl)oxy)pyridin-4-yl)ethyl)oxy)phenyl)isoxazol-3-ol Sodium Salt]	106%
CC(C)Oc1cc(C[C@@H](C)Oc2ccc(-c3cc(O)no3)cc2)ccn1 [Example 64, 5-(4-(((1R)-1-methyl-2-(2-((1-methylethyl)oxy)pyridin-4-yl)ethyl)oxy)phenyl)isoxazol-3-ol Sodium Salt]	104%
